Test [1] in a line: Displacement of [3H]DTG from sigma 2 receptor in rat brain homogenate. The format is tissue-based. Background: Loss of bound radioactivity is the signal in a displacement assay; it reports binding, not function.
The target of test [2] is T1, D(2) dopamine receptor (Homo sapiens, UniProt P14416). The test can be described thus: Displacement of [3H]N-methylspiperone from human D2 receptor expressed in HEK cells. The format is cell-based, HEK293.
The target of the next test is D(1A) dopamine receptor (Homo sapiens, UniProt P21728). The test can be described thus: Displacement of [3H][…] from human D1 receptor expressed in HEK cells. Type of test: cell-based, HEK293.
Sequence of D(1A) dopamine receptor (P21728 whole entry): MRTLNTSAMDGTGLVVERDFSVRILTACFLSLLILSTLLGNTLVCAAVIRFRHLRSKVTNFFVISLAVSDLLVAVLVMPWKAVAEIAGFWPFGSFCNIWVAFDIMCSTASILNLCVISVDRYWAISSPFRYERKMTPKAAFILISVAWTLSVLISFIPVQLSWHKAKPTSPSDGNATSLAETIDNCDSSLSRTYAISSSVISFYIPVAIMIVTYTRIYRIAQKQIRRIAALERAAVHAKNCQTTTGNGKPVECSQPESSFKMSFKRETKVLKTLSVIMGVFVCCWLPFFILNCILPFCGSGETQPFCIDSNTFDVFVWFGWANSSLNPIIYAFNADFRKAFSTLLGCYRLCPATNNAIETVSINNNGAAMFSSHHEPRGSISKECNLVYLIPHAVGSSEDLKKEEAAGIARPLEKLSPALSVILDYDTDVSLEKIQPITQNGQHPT
For a further test, the species on record is Rattus norvegicus. The test can be described thus: Ratio of Ki for rat sigma 2 receptor to Ki for rat sigma 1 receptor.
The target of test [3] is Sigma non-opioid intracellular receptor 1 (Rattus norvegicus, UniProt Q9R0C9). The test can be described thus: Displacement of [3H](+)-pentazocine from sigma 1 receptor in rat brain homogenate. The format is tissue-based.
Sequence of Sigma non-opioid intracellular receptor 1 (Q9R0C9 whole entry): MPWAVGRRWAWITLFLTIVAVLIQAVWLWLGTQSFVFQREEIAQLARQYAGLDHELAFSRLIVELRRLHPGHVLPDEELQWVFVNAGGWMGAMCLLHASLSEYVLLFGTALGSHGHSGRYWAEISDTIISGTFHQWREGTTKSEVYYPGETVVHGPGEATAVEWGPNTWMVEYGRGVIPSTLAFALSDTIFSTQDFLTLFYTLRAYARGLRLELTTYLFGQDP
In test [4] the target is T1, D(2) dopamine receptor. The test can be described thus: Displacement of [3H]N-methylspiperone from human D2 receptor expressed in HEK cells at 10 uM. The format is cell-based. As to conditions: HEK293.
Test [5] concerns the target T2, D(3) dopamine receptor (Homo sapiens, UniProt P35462). The test can be described thus: Displacement of [3H]N-methylspiperone from human D3 receptor expressed in HEK cells. The format is cell-based, HEK293.
For test [6], the target named is T2, D(3) dopamine receptor. The test can be described thus: Displacement of [3H]N-methylspiperone from human D3 receptor expressed in HEK cells at 10 uM. Type of test: cell-based. As to conditions: HEK293.
A further test addresses D(1B) dopamine receptor (Homo sapiens, UniProt P21918). The test can be described thus: Displacement of [3H][…] from human D5 receptor expressed in HEK cells. Type of test: cell-based, HEK293.
Another test deals with T3, D(4) dopamine receptor (Homo sapiens, UniProt P21917).
T3 sequence (P21917 whole entry): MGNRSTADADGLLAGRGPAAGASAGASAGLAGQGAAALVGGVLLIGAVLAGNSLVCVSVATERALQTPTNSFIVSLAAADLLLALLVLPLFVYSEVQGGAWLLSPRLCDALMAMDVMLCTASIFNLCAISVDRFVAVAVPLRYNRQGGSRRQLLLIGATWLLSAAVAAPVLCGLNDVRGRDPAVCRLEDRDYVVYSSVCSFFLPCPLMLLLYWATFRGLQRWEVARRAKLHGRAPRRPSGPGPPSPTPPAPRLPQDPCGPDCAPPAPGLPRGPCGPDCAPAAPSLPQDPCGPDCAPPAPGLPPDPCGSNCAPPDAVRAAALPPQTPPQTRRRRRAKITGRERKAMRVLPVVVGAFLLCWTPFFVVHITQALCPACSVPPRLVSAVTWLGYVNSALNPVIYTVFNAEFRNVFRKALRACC
The test can be described thus: Displacement of [3H]N-methylspiperone from human D4 receptor expressed in HEK cells. Type of test: cell-based, HEK293.

One may read the Ki as a measure of affinity in units of concentration, obtained from inhibition or displacement. Broadly, the IC50 is the concentration that gives 50% inhibition. Low values mean inhibition by little substance, high ones a need for much substance.

T2 sequence (P35462 whole entry): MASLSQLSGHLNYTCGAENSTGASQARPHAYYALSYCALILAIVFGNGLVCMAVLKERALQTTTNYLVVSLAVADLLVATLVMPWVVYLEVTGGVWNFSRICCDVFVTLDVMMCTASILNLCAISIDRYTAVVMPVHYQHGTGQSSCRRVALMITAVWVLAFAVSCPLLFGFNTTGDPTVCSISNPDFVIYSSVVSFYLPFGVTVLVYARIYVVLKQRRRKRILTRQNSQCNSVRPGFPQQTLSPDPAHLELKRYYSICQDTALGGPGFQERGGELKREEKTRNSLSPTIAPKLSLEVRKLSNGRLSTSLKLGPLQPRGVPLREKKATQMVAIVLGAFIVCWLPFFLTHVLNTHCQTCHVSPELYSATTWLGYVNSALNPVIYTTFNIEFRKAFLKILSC
T1 sequence (P14416 whole entry): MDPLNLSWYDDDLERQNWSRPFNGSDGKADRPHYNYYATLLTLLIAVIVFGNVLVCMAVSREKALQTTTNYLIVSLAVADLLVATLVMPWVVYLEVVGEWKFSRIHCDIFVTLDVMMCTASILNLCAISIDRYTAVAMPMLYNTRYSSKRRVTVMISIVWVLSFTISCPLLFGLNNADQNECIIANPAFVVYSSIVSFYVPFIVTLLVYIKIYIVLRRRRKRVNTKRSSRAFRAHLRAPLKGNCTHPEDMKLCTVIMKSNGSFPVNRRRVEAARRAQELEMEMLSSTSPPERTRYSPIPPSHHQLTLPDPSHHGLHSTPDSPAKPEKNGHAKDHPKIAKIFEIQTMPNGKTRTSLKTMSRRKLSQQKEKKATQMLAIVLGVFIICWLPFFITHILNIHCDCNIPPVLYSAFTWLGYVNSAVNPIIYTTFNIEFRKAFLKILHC
Sequence of D(1B) dopamine receptor (P21918 whole entry): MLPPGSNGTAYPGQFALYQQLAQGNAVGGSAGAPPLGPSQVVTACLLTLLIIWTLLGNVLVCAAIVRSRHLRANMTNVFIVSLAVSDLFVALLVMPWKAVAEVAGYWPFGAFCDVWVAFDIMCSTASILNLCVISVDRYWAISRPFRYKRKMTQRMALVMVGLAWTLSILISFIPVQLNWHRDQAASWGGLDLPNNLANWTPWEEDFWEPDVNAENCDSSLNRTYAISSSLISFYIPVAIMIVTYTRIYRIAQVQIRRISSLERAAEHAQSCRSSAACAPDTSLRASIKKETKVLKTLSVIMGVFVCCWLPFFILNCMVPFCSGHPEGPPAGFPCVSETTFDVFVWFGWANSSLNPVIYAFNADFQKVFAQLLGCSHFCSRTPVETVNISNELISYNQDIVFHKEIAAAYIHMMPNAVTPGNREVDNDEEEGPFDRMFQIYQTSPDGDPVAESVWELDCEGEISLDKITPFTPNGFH

In [1], `COc1cc2c(cc1OC)CN(CCNC(=O)c1cc(C)ccc1OC)CC2` had an inhibitory constant (Ki) of 13.3 nM.
On to `O=C(CCCN1CCC(O)(c2ccc(Cl)cc2)CC1)c1ccc(F)cc1` [HALOPERIDOL], for which the Ki in [1] was found to be 7.93 nM.
`CCCN(CCC)CCc1ccc(OC)c(OCCc2ccccc2)c1` gave an inhibition constant (Ki) in [1] of 212 nM. The half-maximal inhibitory concentration (IC50) at D(2) dopamine receptor [2] and at D(1A) dopamine receptor was more than 10000 nM throughout.
As for `COc1ccc(CCN2C3C4C5CC6C7C5C3C7C2(O)C64)cc1OCCc1ccccc1` (stereo not given), the Ratio Ki in the test filed under Rattus norvegicus was determined as 4.7. In addition, the Ki in test [1] was 93 nM; on D(2) dopamine receptor [2] it was more than 10000 nM; in test [3] it was 20 nM; on D(1A) dopamine receptor, more than 10000 nM. The compound further displayed an Activity at D(2) dopamine receptor [4] of less than 50%.
For `COc1ccc(C)cc1C(=O)NCCN1C2C3C4CC5C6C4C2C6C1(O)C53` (stereo not given), in the test listed under Rattus norvegicus, the Ratio Ki amounted to 30. Besides, the Ki was 225 nM in test [1], more than 10000 nM on D(2) dopamine receptor [2], more than 10000 nM at D(3) dopamine receptor [5] and 7.6 nM in [3]. The Activity at D(2) dopamine receptor [4] and on D(3) dopamine receptor [6] was less than 50% in each case.
With `O=C(CCCN1C2C3C4CC5C6C4C2C6C1(O)C53)c1ccc(F)cc1` (stereo not given), the Ki was 55 nM in [1]; 1720 nM at D(2) dopamine receptor [2]; 1960 nM at D(3) dopamine receptor [5]; more than 10000 nM on D(1B) dopamine receptor; 27 nM in test [3]; 209 nM on D(1A) dopamine receptor. This compound yielded a Ki at D(4) dopamine receptor of 93 nM.
